In patent US11478445B2, “Method for treating acute myeloid leukemia” (Bionomics Limited, priority 2017, dated 2022):
“Also recorded” adds a separate entry of the source.

Assays:
Noxa = test: Western blot for Noxa in primary AML sample L-AML6; format: cell-based, human; conditions: L-AML6, 48 h
Description: (§1) Cells were harvested (4×10^6 for cell lines and 7×10^6 for L-AMLs) and washed 3 times with cold PBS (centrifuged at 4° C.). Lysis buffer was prepared with NP40 Cell Lysis Buffer (ThermoFisher Scientific), cOmplete protease inhibitor (Roche, 046993116001), PhosStop (Roche, 04906837001) and Pefablock (Roche, 11585916001) at the recommended concentrations. After the washes, cells were resuspended in 50 μL of lysis buffer, vortexed and incubated on ice for 30 min. Samples were vortexed every 10 min. After 30 min incubation, samples were centrifuged at 14,000 g at 4° C. for 10 min and supernatants were transferred to tubes. Protein was quantified using the DC Protein Assay kit (BioRad) per manufacturer's protocol. 50 μg of cell lines lysate or 20 μg of L-AML6 lysate were loaded for SDS-PAGE. Protein was transferred from the gels into PVDF membranes using a semi dry transfer apparatus (BioRad). The membranes were blocked for 1 h at room temperature with 5% skim milk in 0.1% TBS-t and then incubated with gentle shaking with primary antibodies overnight at 4° C. […]
(§2) Western blot analysis. […] For L-AML6 cells P-JNK^Thr183/Tyr185 and Noxa expression were determined using the specific antibodies that have been validated in the cell line experiments (FIG. 4). […]

MV4; 11 AML cell line = test: MTS proliferation assay, MV4;11; format: cell-based
Description: The cell lines (MV4; 11 and HL-60) were plated in 96-well plates at 1×10^4 cells/well in 50 uL of complete growth media. Cells were plated in triplicate wells for each dose being tested. EX 1 (in DMSO), Oxi4503 (EndoTherm, Batch #EN09013, in water), CA4P (Selleckchem, Cat #S7204, in water) and Plinabulin (Selleckchem, Cat #S1176, in DMSO) was reconstituted immediately prior to use at 10 mM in appropriate diluent as indicated. The drug was prepared 2× concentrated in media and 50 uL added to respective wells (0.1% DMSO or water, final concentration). After 72 hours, 20 μL of CellTiter 96 AQueous One Solution reagent (Promega cat #G3581) was added to each well and the plate incubated for 2 h at 37° C. before absorbance was measured at 492 nm using a Thermo Multiskan Ascent96/384 Plate Reader.
To compare the efficacy of EX 1 with other tubulin polymerisation inhibitors, MTS proliferation assays were performed on MV4; 11 and HL-60 AML cell lines (Table 1). […] Cells were cultured with the compounds for 72 hours before viability was measured by the addition of CellTiter 96 AQueous One Solution reagent (Promega cat #G3581) and absorbance measured at 492 nm. IC50 was calculated using the absolute IC50 method in GraphPad Prism 6.

P-JNK^Thr183/Tyr185 = test: Western blot for P-JNK in primary AML sample L-AML6; format: cell-based, human; conditions: L-AML6, 48 h
Description: as §1, §2

[1] = tested on: GPR56+ LSC containing population of AML samples; test: LSC detection by flow cytometry (CD34, CD38, GPR56); format: cell-based, human
Description: 8×10^5 cells (800 μL) were harvested in 5 mL tubes and fixed with 1.6% formaldehyde for 10 min at room temperature. The samples were then washed once with PBS and once with PBS/1% BSA. The cell pellets were resuspended in 100 μL PBS/1% BSA containing 5 μL of anti-CD34-APC (BD Biosciences, clone 8G12, catalogue 340441, lot 6183704), 5 μL of anti-CD38-PECy7 (BD Biosciences, 335790, lot 3353807) and 5 μL of anti-GPR56-PE (Biolegend, 358204, lot B208353) and incubated at room temperature for 1 h in the dark. Finally, cells were washed twice with PBS and resuspended in 200 μL of PBS for analysis on an LSRFortessa (BD Biosciences) flow cytometer. Results were analysed with FCS Express 4 Flow Research Edition software (De Novo Software).
LSC analysis. AML BMMNC samples were first gated for viable cells and then the fraction of GPR56+ cells was determined. According to the report by Pabst and collaborators (Pabst et al, Blood 2016), in CD34^high AML samples the GPR56+ population containing LSCs is present within the CD34+ cells, while in CD34^low AML samples the GPR56+ population containing LSCs is present in both CD34+ and CD34− cell populations. Therefore, the LSC containing subpopulation was estimated from the CD34+/GPR56+ gate for AML235, and from the GPR56+/CD34+ and GPR56+/CD34− gates in AML136 and AML480 (FIG. 6A). A decrease in these subpopulations in response to EX 1 would be consistent with the drug targeting the important LSC-containing compartment. […] On the other hand, OXi4503 treatment, when compared to vehicle control (DMSO), had little effect on AML136 and no effect on AML235 and AML480 (FIG. 6B).

IC50 compared with Oxi4503, CA4P and Plinabulin (MV4; 11 AML cell line; MV4;11, 72 h) | SMILES | Noxa expression (Noxa) | potency relative to any other VDAs (times more potent) (MV4; 11 AML cell line; MV4-11, 72 h exposure) | P-JNK level (P-JNK^Thr183/Tyr185; 500 nM) | GPR56+ LSC containing cell population ([1]; AML136, AML235, AML480, 48 h) | concentration at which the LSC population is decreased (as low as) ([1]; AML samples, 48 h, FIG. 6C) | P-JNK level (P-JNK^Thr183/Tyr185; indicated doses) | effect on GPR56+ LSC containing population vs DMSO ([1]; AML136, 48 h) | effect on GPR56+ LSC containing population vs DMSO ([1]; AML235 and AML480, 48 h)
lowest IC50 | COc1cc(C(=O)c2c(C)oc3c(O)c(OC)ccc23)cc(OC)c1OC [EX 1, 2-Methyl-7-hydroxy-3-(3,4,5-trimethoxybenzoyl)-6-methoxybenzofuran] | no change was observed; also recorded: does not appear to change | at least 10 times | small increase; also recorded: induced | affected at different rates | 20 nM |  |  | 
 | COc1cc(/C=C\c2ccc(OC)c(OP(=O)(O)O)c2OP(=O)(O)O)cc(OC)c1OC [OXi4503, reference compound] | no change was observed; also recorded: does not appear to change |  |  |  |  | no apparent change | little effect | no effect
